US20260306500A1, “METHOD OF INHIBITING ADENOSINE TRIPHOSPHATE SECRETION, METHOD OF INHIBITING HEPATIC STELLATE CELL ACTIVATION, METHOD OF DEACTIVATING HEPATIC STELLATE CELL, METHOD OF TREATING HEPATIC FIBROSIS, METHOD OF TREATING NON-ALCOHOLIC STEATOHEPATITIS, AND METHOD OF TREATING PSORIASIS” (Kurume University, priority 2023, published 2026)

How the values were obtained:
ATP secretion = conditions: known; cited from earlier work
[1] = tested on: macrophages (THP-1 cells); test: ATP secretion from macrophages differentiated from THP-1 cells upon LPS stimulation; format: cell-based, human; conditions: 10 μM, 10 μg/ml LPS, N=10 (FIG. 9)
Protocol: Human acute monocytic leukemia cells (THP-1 cells (ACTT)) were cultured in accordance with Reference D. THP-1 cells were cultured in RPMI1640 medium supplemented with 10% fetal bovine serum (FBS), 100 units/ml penicillin, and 100 μg/ml streptomycin at 37° C. in 5% CO2 for 1 day. Further, THP-1 cells were cultured in RPMI1640 medium supplemented with 1 μg/ml Escherichia coli serotype 055:B5 (manufactured by Sigma-Aldrich) and 1000 units/ml mouse IFN-γ (manufactured by R&D Systems) at 37° C. in 5% CO2 for 1 day, to allow differentiation into macrophages.
The differentiated macrophages were cultured in RPMI1640 medium supplemented with 1 mg/ml Escherichia coli serotype 055:B5 (manufactured by Sigma-Aldrich) and 1000 units/ml mouse IFN-γ (manufactured by R&D Systems) at 2.5×10^4 cells/well in a 24-well plate at 37° C. in 5% CO2 for 4 days. The medium was replaced with HBSS (manufactured by Gibco) supplemented with imeglimin or clodronate), and then LPS (10 μg/ml) was added thereto, followed by further performing incubation for 10 minutes and then collection of 200 μl of the supernatant. The supernatant was immediately treated on a heat block at 95° C. for 10 minutes, and ATP in the supernatant was quantified using an ATP assay kit−Luminescence (manufactured by Dojindo) (N=10).

mouse auricle = test: Topical solutions on imiquimod-induced psoriasis (Example 21); format: in vivo; conditions: for degree of auricular thickening: N=2 (FIG. 44)
Protocol: On Days 1, 2, 3, 5, and 6, 62.5 mg of 5% imiquimod cream (Beselna Cream 5%) was applied to auricles of wild-type mice (IMQ) or VNUT knockout mice (VNUT KO+IMQ) to induce psoriatic symptoms. […] For a negative control, only 20% glycerin solution was applied. In IMQ+1% IMG and IMQ+0.1% IMG, 20% glycerin solution supplemented with 1% (w/v) imeglimin and 0.1% (w/v) imeglimin, respectively, was applied immediately after the imiquimod application. Further, in IMQ+1% Clo and IMQ+0.1% Clo, 20% glycerin solution supplemented with 1% (w/v) clodronate and 0.1% (w/v) clodronate, respectively, was applied immediately after the imiquimod application.

LX-2 cells = test: ATP secretion from LX-2 cells; format: cell-based, human; conditions: 10 μM clodronate
Protocol: Cells of the immortalized human hepatic stellate cell line LX-2 (manufactured by Merck) was cultured in Dulbecco's modified Eagle's medium (DMEM, 4500 mg/l Glucose, D5796, manufactured by Sigma-Aldrich) supplemented with inactivated 2% fetal bovine serum (FBS), 10 IU/ml penicillin, and 10 IU/ml streptomycin in a T25 or T75 flask at 37° C. in 5% CO2.
LX-2 cells (2×10^6 cells per well) were seeded in a collagen-coated 6-well culture dish containing Dulbecco's modified Eagle's medium (manufactured by Sigma-Aldrich) supplemented with 10 IU/ml penicillin, […] 2% fetal bovine serum, and cultured in 5% CO2 at 37° C. After 3 days, the LX-2 cells were washed twice and preincubated in Krebs-Ringer buffer (10 mM HEPES-Tris, pH 7.4, 128 mM NaCl, 1.9 mM KCl, 1.2 mM KH2PO4, 1.3 mM MgSO4, 26 mM NaHCO3, 2.4 mM CaCl2, 10 mM glucose, 0.2% (w/v) bovine serum albumin) with or without 10 μM clodronate. The LX-2 cells were then stimulated with Krebs-Ringer buffer supplemented with ionomycin (manufactured by Cayman) regardless of whether clodronate was present or not. For the stimulation, 1 mM EGTA (manufactured by Dojindo) or 10 μM serotonin (5-HT, manufactured by Sigma-Aldrich) was used. The ATP concentration in the culture supernatant was measured in the same manner as in Example 6.
For an siRNA experiment, a TriFECTa (trademark) RNAi Kit (manufactured by Integrated DNA Technologies) was used. A scramble RNA (scRNA) as a control siRNA, or a VNUT-specific siRNA, was incubated with Lipofectamine 3000 reagent (manufactured by Invitrogen) in OptiMEM reduced-serum medium (#31985070, manufactured by Gibco) at room temperature for 15 minutes, and then added directly to the cultured cells. The LX-2 cells as the transfection mixture were plated, and then cultured for 48 hours. The base sequences of VNUT siRNA forward and VNUT siRNA reverse, used for the above kit, are shown in SEQ ID NOs: 1 and 2, respectively. A positive control for an endogenous gene (#51-01-08-02) and a negative control (#51-01-14-03) were used.

[2] = tested on: ATP-loaded vesicles of keratinocytes; test: Accumulation of MANT-ATP in granules of keratinocytes (confocal microscopy); format: cell-based, human; conditions: 10 μM imeglimin, 19 hours, 0.3 mM MANT-ATP (FIG. 13)
Protocol: Keratinocytes were cultured in the same manner as in Example 8. Keratinocytes were cultured at 4×10^4 cells/ml in a glass-bottom dish (35 mm, manufactured by Matsunami Glass Ind., Ltd.) at 37° C. in 5% CO2 for 2 days. The culture medium was then replaced with a medium supplemented with MANT-ATP (manufactured by Invitrogen) at a final concentration of 0.3 mM, and further incubation was performed for 4.5 hours. Subsequently, imeglimin was added thereto to a final concentration of 10 μM, and further incubation was performed at 37° C. in 5% CO2 for 19 hours. Thereafter, the cells were washed twice with HBSS (manufactured by Gibco) and observed using an inverted confocal laser microscope (FV-1000 OSR, manufactured by Olympus Corporation).

VNUT = test: Inhibitory effect on VNUT (data not shown)
[3] = topical 0.1% (w/v) in 20% glycerin solution after imiquimod
[4] = topical 1% (w/v) in 20% glycerin solution after imiquimod

| SMILES | ATP secretion inhibitory action (ATP secretion) | LPS-induced ATP secretion from macrophages [1] | auricular thickness compared with imiquimod-treated VNUT knockout mice (mouse auricle; topical 0.1% (w/v)) | degree of auricular thickening (mouse auricle; [3]) | auricular thickness compared with imiquimod-treated VNUT knockout mice (mouse auricle; topical 1% (w/v)) | degree of auricular thickening (mouse auricle; [4]) | 5-HT-promoted ATP secretion (LX-2 cells; 10 μM 5-HT, N=6 (FIG. 25)) | ATP exocytosis (LX-2 cells; ionomycin, N=6 (FIG. 24)) | accumulation of MANT-ATP in granules [2] | concentration dependence of effect on auricular thickening (mouse auricle; topical 0.1% and 1% (w/v)) | inhibitory effect on VNUT (VNUT) |
| --- | --- | --- | --- | --- | --- | --- | --- | --- | --- | --- | --- |
| O=P(O)(O)C(Cl)(Cl)P(=O)(O)O [clodronate] | known to have an ATP secretion inhibitory action | strongly inhibited | about the same | improved | about the same | improved | strongly inhibited | inhibited | – | – | – |
| C[C@@H]1N=C(N)NC(N(C)C)=N1 [imeglimin] | – | strongly inhibited | – | no effect | about the same | improved | – | – | absent | concentration-dependent | neither imeglimin nor metformin exhibited a strong inhibitory effect |
